Earlier results in patent US20100278915A1, “COMPOSITIONS COMPRISING AN ANTIHISTAMINE, A[…] DE[…] EXTENDED RELEASE FORMULATIONS” (Atley Pharmaceuticals, Inc., priority 2009, published 2010).
Counter-ions that a name gives are not always drawn.

Assays:
[1] = after a single oral dose
[2] = within 24 hours of dosing
[3] = in vivo

COc1ccc2c3c1O[C@H]1C(=O)CC[C@H]4[C@@H](C2)N(C)CC[C@]314 [Hydrocodone, hydrocodone]
share of total excretion in the first 24 hours [1]: About 70%

CN[C@@H](C)[C@@H](O)c1ccccc1 [Pseudoephedrine, pseudoephedrine]
dose excreted unchanged in urine [2]: up to 90%

CN(C)CCC(c1ccc(Cl)cc1)c1ccccn1 (stereo not shown) [Chlorpheniramine, Chlorpheniramine maleate]
monodesmethyl and didesmethyl compounds excreted in the urine [3]: up to 26%
renal elimination, share of total excretion [3]: approximately 50%
